The supplement of paper PMC10307832

Legend:
Assay in all cases: relative viability (nuclei count vs DMSO), 5 days (fraction); higher = more cells survive
[1] = compound: CN1CCN(c2ccc3nc(-c4c(N)c5c(F)cccc5[nH]c4=O)[nH]c3c2)CC1 [Dovitinib]
Summary of the method: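 Nuclei counted with MetaXpress define viability as the ratio of treated to vehicle wells, given as a median across plates. The lung cancer cell lines were in 1536-well plates, pinned with five √10-spaced library-drug doses and imaged at 4× after 5 days and Hoechst staining. Plates passed with control CV below 25% and at least one doubling.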

[2] = compound: CN1CCN(c2ccc3nc(-c4c(N)c5c(F)cccc5[nH]c4=O)[nH]c3c2)CC1 [Dovitinib] + Cc1cc(Nc2cc(N3CCN(C)CC3)nc(Sc3ccc(NC(=O)C4CC4)cc3)n2)n[nH]1 [Tozasertib] (partner 0.1 µM)
Summary of the method: (§1)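 Cells from lung cancer lines were seeded into 1536-well plates and, one day later, dosed by pin tool. Treatments were either a single drug or a fixed dose of an anchor drug with five library-drug doses (not always all listed) in √10 steps. After 5 days, nuclei were stained in a one-step fixation (final 0.05% Triton X-100, 1% formaldehyde, 1 ug/ml Hoechst) and counted on 4× images, and relative viability is the treated-to-vehicle nuclei ratio, as the median of duplicate plates.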

[3] = compound: CN1CCN(c2ccc3nc(-c4c(N)c5c(F)cccc5[nH]c4=O)[nH]c3c2)CC1 [Dovitinib] + COc1cc2c(Oc3ccc(NC(=O)C4(C(=O)Nc5ccc(F)cc5)CC4)cc3F)ccnc2cc1OCCCN1CCOCC1 [Foretinib] (partner 0.25 µM)
Summary of the method: as §1

[4] = compound: CN1CCN(c2ccc3nc(-c4c(N)c5c(F)cccc5[nH]c4=O)[nH]c3c2)CC1 [Dovitinib] + Nc1nc2[nH]cc(CCc3ccc(C(=O)N[C@@H](CCC(=O)O)C(=O)O)cc3)c2c(=O)[nH]1 [Pemetrexed] (partner 0.2 µM)
Summary of the method: as §1

[5] = compound: CN1CCN(c2ccc3nc(-c4c(N)c5c(F)cccc5[nH]c4=O)[nH]c3c2)CC1 [Dovitinib] + CC(=O)c1c(C)c2cnc(Nc3ccc(N4CCNCC4)cn3)nc2n(C2CCCC2)c1=O [Palbociclib] (partner 0.5 µM)
Summary of the method: as §1

[6] = compound: CN1CCN(c2ccc3nc(-c4c(N)c5c(F)cccc5[nH]c4=O)[nH]c3c2)CC1 [Dovitinib] + Cc1nc(Nc2ncc(C(=O)Nc3c(C)cccc3Cl)s2)cc(N2CCN(CCO)CC2)n1 [Dasatinib] (partner 0.075 µM)
Summary of the method: as §1

[7] = compound: CN1CCN(c2ccc3nc(-c4c(N)c5c(F)cccc5[nH]c4=O)[nH]c3c2)CC1 [Dovitinib] + O=C(c1cc(Cc2n[nH]c(=O)c3ccccc23)ccc1F)N1CCN(C(=O)C2CC2)CC1 [Olaparib] (partner 8 µM)
Summary of the method: as §1

[8] = compound: CN1CCN(c2ccc3nc(-c4c(N)c5c(F)cccc5[nH]c4=O)[nH]c3c2)CC1 [Dovitinib] + CCNC(=O)c1noc(-c2cc(C(C)C)c(O)cc2O)c1-c1ccc(CN2CCOCC2)cc1 [Luminespib] (partner 0.01 µM)
Summary of the method: as §1

[9] = compound: CN1CCN(c2ccc3nc(-c4c(N)c5c(F)cccc5[nH]c4=O)[nH]c3c2)CC1 [Dovitinib] + Nc1ncn([C@H]2C[C@H](O)[C@@H](CO)O2)c(=O)n1 [Decitabine] (partner 2 µM)
Summary of the method: as §1

[10] = compound: CN1CCN(c2ccc3nc(-c4c(N)c5c(F)cccc5[nH]c4=O)[nH]c3c2)CC1 [Dovitinib] + COc1cccc2cc(-c3nc([C@H]4CC[C@H](C(=O)O)CC4)n4ncnc(N)c34)[nH]c12 [OSI-027] (partner 0.5 µM)
Summary of the method: as §1

[11] = compound: CN1CCN(c2ccc3nc(-c4c(N)c5c(F)cccc5[nH]c4=O)[nH]c3c2)CC1 [Dovitinib] + N=C(N)NC(=N)NCCc1ccccc1 [Phenformin] (partner 250 µM)
Summary of the method: as §1

[12] = compound: CN1CCN(c2ccc3nc(-c4c(N)c5c(F)cccc5[nH]c4=O)[nH]c3c2)CC1 [Dovitinib] + NC(=O)Nc1cc(-c2cccc(F)c2)sc1C(=O)N[C@H]1CCCNC1 [AZD7762] (partner 0.2 µM)
Summary of the method: as §1

[13] = compound: CN1CCN(c2ccc3nc(-c4c(N)c5c(F)cccc5[nH]c4=O)[nH]c3c2)CC1 [Dovitinib] + O=C(CCCCCCC(=O)Nc1ccccc1)NO [Vorinostat] (partner 1 µM)
Summary of the method: as §1

[14] = compound: CN1CCN(c2ccc3nc(-c4c(N)c5c(F)cccc5[nH]c4=O)[nH]c3c2)CC1 [Dovitinib] + CC(=O)Nc1cccc(-n2c(=O)n(C3CC3)c(=O)c3c(Nc4ccc(I)cc4F)n(C)c(=O)c(C)c32)c1 [Trametinib] (partner 0.02 µM)
Summary of the method: as §1

## SW 900
[1]; 0.02 µM
  relative viability: 1.11
[1]; 0.06325 µM
  relative viability: 0.853
[1]; 0.2 µM
  relative viability: 1.11
[1]; 0.6325 µM
  relative viability: 1.04
[1]; 2 µM
  relative viability: 0.952
[2]; first compound 0.02 µM
  relative viability: 0.459
[2]; first compound 0.06325 µM
  relative viability: 0.537
[2]; first compound 0.2 µM
  relative viability: 0.533
[2]; first compound 0.6325 µM
  relative viability: 0.582
[2]; first compound 2 µM
  relative viability: 0.689
[3]; first compound 0.02 µM
  relative viability: 0.85
[3]; first compound 0.06325 µM
  relative viability: 0.841
[3]; first compound 0.2 µM
  relative viability: 0.919
[3]; first compound 0.6325 µM
  relative viability: 1
[3]; first compound 2 µM
  relative viability: 0.792
[4]; first compound 0.02 µM
  relative viability: 0.473
[4]; first compound 0.06325 µM
  relative viability: 0.477
[4]; first compound 0.2 µM
  relative viability: 0.476
[4]; first compound 0.6325 µM
  relative viability: 0.534
[4]; first compound 2 µM
  relative viability: 0.491
[5]; first compound 0.02 µM
  relative viability: 0.588
[5]; first compound 0.06325 µM
  relative viability: 0.632
[5]; first compound 0.2 µM
  relative viability: 0.615
[5]; first compound 0.6325 µM
  relative viability: 0.611
[5]; first compound 2 µM
  relative viability: 0.571
[6]; first compound 0.02 µM
  relative viability: 0.741
[6]; first compound 0.06325 µM
  relative viability: 0.586
[6]; first compound 0.2 µM
  relative viability: 0.548
[6]; first compound 0.6325 µM
  relative viability: 0.546
[6]; first compound 2 µM
  relative viability: 0.61
[7]; first compound 0.02 µM
  relative viability: 0.796
[7]; first compound 0.06325 µM
  relative viability: 0.809
[7]; first compound 0.2 µM
  relative viability: 0.847
[7]; first compound 0.6325 µM
  relative viability: 0.808
[7]; first compound 2 µM
  relative viability: 0.851
[8]; first compound 0.02 µM
  relative viability: 0.181
[8]; first compound 0.06325 µM
  relative viability: 0.173
[8]; first compound 0.2 µM
  relative viability: 0.176
[8]; first compound 0.6325 µM
  relative viability: 0.164
[8]; first compound 2 µM
  relative viability: 0.149
[9]; first compound 0.02 µM
  relative viability: 0.395
[9]; first compound 0.06325 µM
  relative viability: 0.456
[9]; first compound 0.2 µM
  relative viability: 0.444
[9]; first compound 0.6325 µM
  relative viability: 0.377
[9]; first compound 2 µM
  relative viability: 0.444
[10]; first compound 0.02 µM
  relative viability: 0.465
[10]; first compound 0.06325 µM
  relative viability: 0.556
[10]; first compound 0.2 µM
  relative viability: 0.616
[10]; first compound 0.6325 µM
  relative viability: 0.54
[10]; first compound 2 µM
  relative viability: 0.62
[11]; first compound 0.02 µM
  relative viability: 0.83
[11]; first compound 0.06325 µM
  relative viability: 0.834
[11]; first compound 0.2 µM
  relative viability: 0.478
[11]; first compound 0.6325 µM
  relative viability: 0.618
[11]; first compound 2 µM
  relative viability: 0.554
[12]; first compound 0.02 µM
  relative viability: 0.591
[12]; first compound 0.06325 µM
  relative viability: 0.62
[12]; first compound 0.2 µM
  relative viability: 0.505
[12]; first compound 0.6325 µM
  relative viability: 0.681
[12]; first compound 2 µM
  relative viability: 0.615
[13]; first compound 0.02 µM
  relative viability: 0.699
[13]; first compound 0.06325 µM
  relative viability: 0.402
[13]; first compound 0.2 µM
  relative viability: 0.518
[13]; first compound 0.6325 µM
  relative viability: 0.616
[13]; first compound 2 µM
  relative viability: 0.493
[14]; first compound 0.02 µM
  relative viability: 0.811
[14]; first compound 0.06325 µM
  relative viability: 0.763
[14]; first compound 0.2 µM
  relative viability: 1.06
[14]; first compound 0.6325 µM
  relative viability: 0.771
[14]; first compound 2 µM
  relative viability: 1.08
